Measurements as given in patent publication US9969741B2, “Pyrazolotriazines as inhibitors of nucleases” (MASARYKOVA UNIVERZITA, priority 2014, dated 2018).
pIC50: −log10 of the molar value.

These compounds were tested against T1, EXO1 (Homo sapiens, UniProt Q9UQ84) (assay: Nuclease inhibition assay, EXO1 (3′ OH fluorescent DNA substrate, gel readout)). Conditions: 5 nM enzyme, 5 nM 3′ OH substrate, 15 min at 30° C.
T1 construct: made in house; host or cells: Escherichia coli BL21 (RIPL)
T1 sequence (Q9UQ84 1-846): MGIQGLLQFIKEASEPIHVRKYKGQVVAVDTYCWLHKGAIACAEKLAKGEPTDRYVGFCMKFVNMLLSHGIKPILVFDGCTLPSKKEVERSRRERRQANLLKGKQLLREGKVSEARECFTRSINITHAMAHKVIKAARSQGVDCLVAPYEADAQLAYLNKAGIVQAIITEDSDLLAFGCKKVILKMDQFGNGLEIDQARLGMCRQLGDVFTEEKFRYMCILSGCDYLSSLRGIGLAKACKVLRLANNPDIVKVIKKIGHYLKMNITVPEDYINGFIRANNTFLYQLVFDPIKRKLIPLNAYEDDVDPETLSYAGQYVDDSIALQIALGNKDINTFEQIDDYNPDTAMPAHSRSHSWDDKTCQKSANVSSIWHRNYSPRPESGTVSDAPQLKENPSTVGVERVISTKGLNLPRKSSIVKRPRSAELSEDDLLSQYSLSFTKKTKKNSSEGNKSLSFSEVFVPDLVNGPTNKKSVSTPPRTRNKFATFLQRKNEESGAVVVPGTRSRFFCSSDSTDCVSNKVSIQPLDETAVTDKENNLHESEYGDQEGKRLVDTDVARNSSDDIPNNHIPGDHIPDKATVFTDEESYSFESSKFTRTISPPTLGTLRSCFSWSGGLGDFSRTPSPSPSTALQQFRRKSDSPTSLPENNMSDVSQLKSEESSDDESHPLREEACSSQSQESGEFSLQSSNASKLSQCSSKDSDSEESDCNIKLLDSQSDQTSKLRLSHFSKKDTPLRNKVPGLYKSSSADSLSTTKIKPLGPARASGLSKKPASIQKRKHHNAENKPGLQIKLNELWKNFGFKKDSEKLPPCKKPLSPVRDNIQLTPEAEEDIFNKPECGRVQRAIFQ
Format: biochemical
Source text: In vitro assays were used for the determination of compound's IC50 values for inhibition of individual nucleases, i.e., MUS81/EME1, FEN1, EXO1, and MRE11. To generate IC50 values, concentration of compound was plotted against relative nuclease activity (in %). The dose-response curves were generated from inhibition data, from 5 point serial dilutions of inhibitory compounds, each in triplicate and fitted to a standard sigmoid curve. IC50 values were derived by standard nonlinear regression analysis.
All tested compounds were diluted in 100% DMSO (dimethylsulfoxide) to prepare working stocks with different concentrations. To keep the DMSO concentration constant in every reaction, always 0.5 μl of the compound stock was added to the reaction buffer. The reaction buffer differs depending on the enzyme tested. Also concentration of the compounds in the reaction depends on the particular enzyme, since the inhibitory effect of the compounds vary between the enzymes. Nevertheless, always doubling dilutions in the range 200-0.8 μM was used. The compound was added as the first component in the reaction buffer, followed by the enzyme addition. […]
For this experiment we prepared short fluorescently labeled oligonucleotide-based DNA substrates with specific structures reflecting the biochemical activities of tested individual nucleases (Table 1). […] For visualization, each substrate was labeled by fluorescent dye (fluorescein), which can be detected in the gel using appropriate imaging system (FLA-9000, Fuji) with filters for particular wavelengths (excitation: 485 nm, emission: 535 nm).
Nuclease assays were performed in reaction buffer specific for particular enzyme: MUS81/EME1 (50 mM Tris pH=7.5, 5 mM MgCl2, 1 mM DTT a 100 μg/ml BSA), MRE11 (30 mM Bis-Tris pH=7.0, 50 μg/ml BSA, 1 mM DTT a 250 μM MnCl2), EXO1 and FEN1 (50 mM Tris pH=7.5, 1 mM MgCl2, 1 mM DTT a 100 μg/ml BSA). […] Fluorescently labeled DNA was detected by FLA-9000 scanner (Fuji) and the result was evaluated using Multi-Gauge V3.2 software (Fuji). […]
In the case of `Nc1c(-c2nc3ccccc3[nH]2)nnc2cc(-c3cccc4ccccc34)nn12` [Preparative Example 5K], the pIC50 was < 4.30. For `Nc1c(-c2nc3ccccc3[nH]2)nnc2cc(-c3ccccc3)nn12` [Preparative Example 5C], the pIC50 was < 4.30. For `CCc1nn2c(N)c(-c3nc4ccccc4[nH]3)nnc2c1-c1ccc(F)cc1` [Preparative Example 5A], the pIC50 was < 4.30.
